Experimental data reported in patent US20230172867A1, “A METHOD FOR TREATING CANCER WITH AN ORAL DOSAGE FORM OF AN FGFR4 INHIBITOR” (Eisai R&D Management Co., Ltd., priority 2020, published 2023).
Entries after “also recorded” stand apart in the source; their conditions may differ. Where two headings read alike, the source gives them in different places.

Assay: Pharmacokinetic measurements of H3B-6527 capsules in patients (trial NCT02834780), plasma LC-MS/MS
Format: in vivo, human
Conditions: for Cmax / half-life / Tmax / AUC: human, plasma, oral; for Cmax: read-out: Cmax, geometric mean (CV%); for half-life: read-out: Half-life, geometric mean (CV%) (converted); for Tmax: read-out: Tmax, median (min-max); for AUC: read-out: AUC, geometric mean (CV%)
Source text: A description of the first in human clinical trial for H3B-6527 can be found at the ClinicalTrials.gov by searching for trial identifier NCT02834780. In summary, the trial included a study population having the following characteristics: Adult patients ≥18 years old with advanced HCC or ICC; Progression after at least one prior therapy; ECOG score of 0 or 1; Well compensated liver function; FGF19-positive (dose expansion phase only); Excluded if patients have significant active infections [except hepatitis B virus (HBV) and hepatitis C virus (HCV)], gastric or esophageal varices, or previous FGF19-FGFR4 targeted therapy.
Blood samples are collected at the planned time points from each patient and centrifuged. The plasma portion of each sample is then transferred to a K2EDTA tube, which is then shipped to a bioanalytical lab for concentration measurement using LC-MS/MS. The concentration data are then analyzed using Phoenix® WinNonlin software to obtain PK parameters. The obtained PK parameters are further summarized using analytical software.
Drug Administration and Dosage for Dose Escalation: H3B-6527 was administered orally QD or BID on a 21-day cycle. […] Patients in dose escalation phase were treated regardless of FGF19 status. Response determined by RECIST 1.1/modified RECIST every 6 weeks
Further collection and collation of the PK results of the trial of Example 2 at a later point in time are reflected in the following Table 5:
The results of further analysis of the PK data of the trial of Example 2 with the actual date and time of the dose administration and PK sampling after QC, an update from the results of a preliminary analysis with the nominal (i.e. planned) dosing/PK sampling date/time presented in Example 3, are reflected in the following Table 6. In this example the number of patients from which each PK parameter was calculated is shown, rather than the total number of patients receiving a particular dose and regimen as in Table 5.

[1] = 300 mg, 300 mg QD, fasted, Day 1, Table 5, nominal times
[2] = 300 mg, 300 mg QD, fasted, Day 1, Table 6, actual times after QC
[3] = 300 mg, 300 mg QD, fasted, Day 8, Table 5, nominal times
[4] = 300 mg, 300 mg QD, fasted, Day 8, Table 6, actual times after QC
[5] = 500 mg, 500 mg BID, fasted, Day 1, Table 5, nominal times
[6] = 500 mg, 500 mg BID, fasted, Day 1, Table 6, actual times after QC
[7] = 500 mg, 500 mg BID, fasted, Day 8, Table 5, nominal times
[8] = 500 mg, 500 mg BID, fasted, Day 8, Table 6, actual times after QC
[9] = 500 mg, 500 mg BID, fed, Day 1, Table 5, nominal times
[10] = 500 mg, 500 mg BID, fed, Day 1, Table 6, actual times after QC
[11] = 500 mg, 500 mg BID, fed, Day 8, Table 5, nominal times
[12] = 500 mg, 500 mg BID, fed, Day 8, Table 6, actual times after QC
[13] = 600 mg, 600 mg QD, fasted, Day 1, Table 5, nominal times
[14] = 600 mg, 600 mg QD, fasted, Day 1, Table 6, actual times after QC
[15] = 600 mg, 600 mg QD, fasted, Day 8, Table 5, nominal times
[16] = 600 mg, 600 mg QD, fasted, Day 8, Table 6, actual times after QC
[17] = 600 mg, 600 mg QD, fed, Day 1, Table 5, nominal times
[18] = 600 mg, 600 mg QD, fed, Day 1, Table 6, actual times after QC
[19] = 600 mg, 600 mg QD, fed, Day 8, Table 5, nominal times

C=CC(=O)Nc1cc(N2CCN(CC)CC2)ccc1Nc1cc(N(C)C(=O)Nc2c(Cl)c(OC)cc(OC)c2Cl)ncn1 [H3B-6527, N-(2-((6-(3-(2,6-dichloro-3,5-dimethoxyphenyl)-1-methylureido)pyrimidin-4-yl)amino)-5-(4-ethylpiperazin-1-yl)phenyl)acrylamide]
AUC, geometric mean (CV%) (300 mg QD, fasted, Day 1, Table 5, nominal times): 73 ng·h/mL | AUC, geometric mean (CV%) (300 mg QD, fasted, Day 8, Table 5, nominal times): 53 ng·h/mL | AUC, geometric mean (CV%) (500 mg BID, fasted, Day 1, Table 5, nominal times): 470 ng·h/mL | AUC, geometric mean (CV%) (500 mg BID, fasted, Day 8, Table 5, nominal times): 1200 ng·h/mL | AUC, geometric mean (CV%) (500 mg BID, fed, Day 1, Table 5, nominal times): 769 ng·h/mL | AUC, geometric mean (CV%) (500 mg BID, fed, Day 8, Table 5, nominal times): 1080 ng·h/mL | exposure in plasma across doses (500 mg to 2000 mg administered with food (FIG. 4)): appeared to be similar across the doses from 500 mg to 2000 mg | AUC, geometric mean (CV%) (600 mg QD, fasted, Day 1, Table 5, nominal times): 175 ng·h/mL | AUC, geometric mean (CV%) (600 mg QD, fasted, Day 8, Table 5, nominal times): 636 ng·h/mL | AUC, geometric mean (CV%) (600 mg QD, fed, Day 1, Table 5, nominal times): 1280 ng·h/mL | AUC, geometric mean (CV%) (600 mg QD, fed, Day 8, Table 5, nominal times): 502 ng·h/mL | AUC, geometric mean (CV%) (700 mg BID, fed, Day 1, Table 5, nominal times): 590 ng·h/mL | AUC, geometric mean (CV%) (700 mg BID, fed, Day 8, Table 5, nominal times): 640 ng·h/mL | AUC, geometric mean (CV%) (1000 mg QD, fasted, Day 1, Table 5, nominal times): 602 ng·h/mL | AUC, geometric mean (CV%) (1000 mg QD, fasted, Day 8, Table 5, nominal times): 912 ng·h/mL | AUC, geometric mean (CV%) (1000 mg QD, fed, Day 1, Table 5, nominal times): 1100 ng·h/mL | AUC, geometric mean (CV%) (1000 mg QD, fed, Day 8, Table 5, nominal times): 865 ng·h/mL | AUC, geometric mean (CV%) (1400 mg QD, fasted, Day 1, Table 5, nominal times): 400 ng·h/mL | AUC, geometric mean (CV%) (1400 mg QD, fasted, Day 8, Table 5, nominal times): 1450 ng·h/mL | AUC, geometric mean (CV%) (1400 mg QD, fed, Day 1, Table 5, nominal times): 5670 ng·h/mL | AUC, geometric mean (CV%) (1400 mg QD, fed, Day 8, Table 5, nominal times): 5450 ng·h/mL | AUC, geometric mean (CV%) (2000 mg QD, fed, Day 1, Table 5, nominal times): 3030 ng·h/mL | AUC, geometric mean (CV%) (2000 mg QD, fed, Day 8, Table 5, nominal times): 1920 ng·h/mL | minimal plasma concentration, BID versus QD schedule (Cycle 1, Day 8 (FIG. 1)): A higher minimal plasma concentration was maintained on the BID schedule | plasma levels / exposure versus dose (QD, fasted, Cycle 1, Day 8 (FIG. 1), preliminary PK analysis): increased with dose from 300 to 1000 mg QD and plateaued; also recorded: increased with dose up to 1000 mg QD | Cmax [1]: 20 ng/mL | half-life [1]: 1.4 h | Tmax [1]: 2 h | AUC [2]: 72.7 ng·h/mL | Cmax [2]: 20.3 ng/mL | half-life [2]: 2.52 h | Tmax [2]: 2 h | Cmax [3]: 11 ng/mL | half-life [3]: 1.2 h | Tmax [3]: 4 h | AUC [4]: 53 ng·h/mL | Cmax [4]: 10.8 ng/mL | half-life [4]: 3.55 h | Tmax [4]: 4 h | Cmax [5]: 124 ng/mL | half-life [5]: 1.9 h | Tmax [5]: 2.75 h | AUC [6]: 292 ng·h/mL | Cmax [6]: 124 ng/mL | half-life [6]: 2.41 h | Tmax [6]: 2.12 h | Cmax [7]: 253 ng/mL | half-life [7]: 1.8 h | Tmax [7]: 3.05 h | AUC [8]: 1110 ng·h/mL | Cmax [8]: 251 ng/mL | half-life [8]: 2.96 h | Tmax [8]: 4 h | Cmax [9]: 255 ng/mL | half-life [9]: 2.1 h | Tmax [9]: 4.02 h | AUC [10]: 768 ng·h/mL | Cmax [10]: 255 ng/mL | half-life [10]: 2.33 h | Tmax [10]: 4.02 h | Cmax [11]: 262 ng/mL | half-life [11]: 2.3 h | Tmax [11]: 4 h | AUC [12]: 814 ng·h/mL | Cmax [12]: 211 ng/mL | half-life [12]: 2.99 h | Tmax [12]: 4 h | Cmax [13]: 74 ng/mL | half-life [13]: 2.4 h | Tmax [13]: 1 h | AUC [14]: 175 ng·h/mL | Cmax [14]: 74.5 ng/mL | half-life [14]: 7.19 h | Tmax [14]: 1 h | Cmax [15]: 194 ng/mL | half-life [15]: 4.8 h | Tmax [15]: 0.52 h | AUC [16]: 636 ng·h/mL | Cmax [16]: 194 ng/mL | half-life [16]: 7.32 h | Tmax [16]: 0.52 h | Cmax [17]: 241 ng/mL | half-life [17]: 3.7 h | Tmax [17]: 4 h | AUC [18]: 1630 ng·h/mL | Cmax [18]: 395 ng/mL | half-life [18]: 3.72 h | Tmax [18]: 4 h | Cmax [19]: 100 ng/mL | half-life [19]: 3.2 h
